Results as given in patent US9695155B2, “Herbicidal substituted pyrimidinyloxy benzene compounds” (E. I. DU PONT DE NEMOURS AND COMPANY, priority 2013, dated 2017).

Legend:
morningglory [1] = experiment: Test A postemergence; type: in vivo, Ipomoea spp.
Description: (§1) Seeds of plant species selected from barnyardgrass (Echinochloa crus-galli), kochia (Kochia scoparia), ragweed (common ragweed, Ambrosia elatior), Italian ryegrass (Lolium multiflorum), large (Lg) crabgrass (Digitaria sanguinalis), giant foxtail (Setaria faberii), morningglory (Ipomoea spp.), pigweed (Amaranthus retroflexus), velvetleaf (Abutilon theophrasti), wheat (Triticum aestivum), and corn (Zea mays) were planted into a blend of loam soil and sand and treated preemergence with a directed soil spray using test chemicals formulated in a non-phytotoxic solvent mixture which included a surfactant.
(§2) At the same time, plants selected from these crop and weed species and also blackgrass (Alopecurus myosuroides), and galium (catchweed bedstraw, Galium aparine) were planted in pots containing the same blend of loam soil and sand and treated with postemergence applications of test chemicals formulated in the same manner. Plants ranged in height from 2 to 10 cm and were in the one- to two-leaf stage for the postemergence treatment. Treated plants and untreated controls were maintained in a greenhouse for approximately 10 days, after which time all treated plants were compared to untreated controls and visually evaluated for injury. Plant response ratings, summarized in Table A, are based on a 0 to 100 scale where 0 is no effect and 100 is complete control. A dash (-) response means no test result.

wheat [2] = experiment: Test A postemergence; type: in vivo, Triticum aestivum
How it was run: (§3)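 Greenhouse pot test, loam/sand soil. Formulation: non-phytotoxic solvent mix plus surfactant. Pre: directed spray onto soil after sowing. Post: plants at 1–2 leaf, 2–10 cm. Rated visually vs untreated controls at ~10 d, 0 (no effect) to 100 (complete control).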

corn [3] = experiment: Test A postemergence; type: in vivo, Zea mays
How it was run: as §3

rice = experiment: Test B flooded paddy test; type: in vivo, Oryza sativa; conditions: Flood, 250 g ai/ha; 0 to 100 scale where 0 is no effect and 100 is complete control
Experimental: (§4) Plant species in the flooded paddy test selected from rice (Oryza sativa), sedge, umbrella (small-flower umbrella sedge, Cyperus difformis), (Heteranthera limosa), and barnyardgrass (Echinochloa crus-galli) were grown to the 2-leaf stage for testing. At time of treatment, test pots were flooded to 3 cm above the soil surface, treated by application of test compounds directly to the paddy water, and then maintained at that water depth for the duration of the test. Treated plants and controls were maintained in a greenhouse for 13 to 15 days, after which time all species were compared to controls and visually evaluated. Plant response ratings, summarized in Table B, are based on a scale of 0 to 100 where 0 is no effect and 100 is complete control. A dash (-) response means no test result.

wheat [4] = experiment: Test A preemergence; type: in vivo, Triticum aestivum; conditions: for Plant response rating, Wheat: 125 g ai/ha, 0 to 100 scale where 0 is no effect and 100 is complete control; for Wheat plant response rating: 0 to 100 scale, 0 no effect, 100 complete control, approx. 10 days
Description: as §1, §2

giant foxtail [5] = experiment: Test A preemergence; type: in vivo, Setaria faberii; conditions: for Plant response rating, Foxtail, Giant: 125 g ai/ha, 0 to 100 scale where 0 is no effect and 100 is complete control; for Foxtail, Giant plant response rating: 0 to 100 scale, 0 no effect, 100 complete control, approx. 10 days
Description: as §1, §2

large (Lg) crabgrass [6] = experiment: Test A postemergence; type: in vivo, Digitaria sanguinalis
How it was run: as §3

corn [7] = experiment: Test A preemergence; type: in vivo, Zea mays; conditions: for Plant response rating, Corn: 125 g ai/ha, 0 to 100 scale where 0 is no effect and 100 is complete control; for Corn plant response rating: 0 to 100 scale, 0 no effect, 100 complete control, approx. 10 days
Description: as §1, §2

large (Lg) crabgrass [8] = experiment: Test A preemergence; type: in vivo, Digitaria sanguinalis; conditions: for Plant response rating, Crabgrass, Large: 125 g ai/ha, 0 to 100 scale where 0 is no effect and 100 is complete control; for Crabgrass, Large plant response rating: 0 to 100 scale, 0 no effect, 100 complete control, approx. 10 days
How it was run: as §3

velvetleaf [9] = experiment: Test A postemergence; type: in vivo, Abutilon theophrasti
Description: as §1, §2

Heteranthera limosa = experiment: Test B flooded paddy test; type: in vivo; conditions: Flood, 250 g ai/ha; 0 to 100 scale where 0 is no effect and 100 is complete control
How it was run: (§5)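 Plants at 2-leaf stage; pots flooded to 3 cm above soil and compound applied directly into paddy water, depth held throughout. After 13 to 15 days in greenhouse, visual rating versus controls on 0 (no effect) to 100 (complete control) scale.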

pigweed [10] = experiment: Test A preemergence; type: in vivo, Amaranthus retroflexus; conditions: for Plant response rating, Pigweed: 125 g ai/ha, 0 to 100 scale where 0 is no effect and 100 is complete control; for Pigweed plant response rating: 0 to 100 scale, 0 no effect, 100 complete control, approx. 10 days
How it was run: as §3

barnyardgrass [11] = experiment: Test A preemergence; type: in vivo, Echinochloa crus-galli; conditions: for Plant response rating, Barnyardgrass: 125 g ai/ha, 0 to 100 scale where 0 is no effect and 100 is complete control; for Barnyardgrass plant response rating: 0 to 100 scale, 0 no effect, 100 complete control, approx. 10 days
Description: as §1, §2

velvetleaf [12] = experiment: Test A preemergence; type: in vivo, Abutilon theophrasti; conditions: for Plant response rating, Velvetleaf: 125 g ai/ha, 0 to 100 scale where 0 is no effect and 100 is complete control; for Velvetleaf plant response rating: 0 to 100 scale, 0 no effect, 100 complete control, approx. 10 days
How it was run: as §3

barnyardgrass [13] = experiment: Test A postemergence; type: in vivo, Echinochloa crus-galli
How it was run: as §3

pigweed [14] = experiment: Test A postemergence; type: in vivo, Amaranthus retroflexus
Description: as §1, §2

morningglory [15] = experiment: Test A preemergence; type: in vivo, Ipomoea spp.; conditions: for Plant response rating, Morningglory: 125 g ai/ha, 0 to 100 scale where 0 is no effect and 100 is complete control; for Morningglory plant response rating: 0 to 100 scale, 0 no effect, 100 complete control, approx. 10 days
How it was run: as §3

giant foxtail [16] = experiment: Test A postemergence; type: in vivo, Setaria faberii
Description: as §1, §2

barnyardgrass [17] = experiment: Test B flooded paddy test; type: in vivo, Echinochloa crus-galli; conditions: Flood, 250 g ai/ha; 0 to 100 scale where 0 is no effect and 100 is complete control
How it was run: as §5

sedge, umbrella = experiment: Test B flooded paddy test; type: in vivo, Cyperus difformis; conditions: Flood, 250 g ai/ha; 0 to 100 scale where 0 is no effect and 100 is complete control
Experimental: as §4

[18] = 125 g ai/ha, 0 to 100 scale where 0 is no effect and 100 is complete control
[19] = 500 g ai/ha, 0 to 100 scale, 0 no effect, 100 complete control
[20] = 1000 g ai/ha, 0 to 100 scale, 0 no effect, 100 complete control
[21] = 500 g ai/ha, 0 to 100 scale where 0 is no effect and 100 is complete control

FC(F)(F)c1ccc(Oc2ncc(Cl)cn2)c(-n2cc(Br)cn2)c1 [Compound 48]
Plant response rating, Morningglory (morningglory [1]; [18]): 20
Plant response rating, Morningglory (morningglory [1]; [19]): 30
Plant response rating, Wheat (wheat [2]; [18]): 0
Plant response rating, Wheat (wheat [2]; [19]): 0
Plant response rating, Corn (corn [3]; [18]): 0
Plant response rating, Corn (corn [3]; [19]): 0
Plant response rating, Rice (rice): 0
Plant response rating, Wheat (wheat [4]): 0
Wheat plant response rating (wheat [4]; 500 g ai/ha): 0
Plant response rating, Foxtail, Giant (giant foxtail [5]): 10
Foxtail, Giant plant response rating (giant foxtail [5]; 500 g ai/ha): 50
Plant response rating, Crabgrass, Large (large (Lg) crabgrass [6]; [18]): 10
Plant response rating, Crabgrass, Large (large (Lg) crabgrass [6]; [19]): 20
Plant response rating, Corn (corn [7]): 0
Corn plant response rating (corn [7]; 500 g ai/ha): 0
Plant response rating, Crabgrass, Large (large (Lg) crabgrass [8]): 50
Crabgrass, Large plant response rating (large (Lg) crabgrass [8]; 500 g ai/ha): 80
Plant response rating, Velvetleaf (velvetleaf [9]; [18]): 0
Plant response rating, Velvetleaf (velvetleaf [9]; [19]): 10
Plant response rating, Ducksalad (Heteranthera limosa): 0
Plant response rating, Pigweed (pigweed [10]): 0
Pigweed plant response rating (pigweed [10]; 500 g ai/ha): 0
Plant response rating, Barnyardgrass (barnyardgrass [11]): 0
Barnyardgrass plant response rating (barnyardgrass [11]; 500 g ai/ha): 0
Plant response rating, Velvetleaf (velvetleaf [12]): 0
Velvetleaf plant response rating (velvetleaf [12]; 500 g ai/ha): 0
Plant response rating, Barnyardgrass (barnyardgrass [13]; [18]): 0
Plant response rating, Barnyardgrass (barnyardgrass [13]; [19]): 10
Plant response rating, Pigweed (pigweed [14]; [18]): 20
Plant response rating, Pigweed (pigweed [14]; [19]): 50
Plant response rating, Morningglory (morningglory [15]): 0
Morningglory plant response rating (morningglory [15]; 500 g ai/ha): 0
Plant response rating, Foxtail, Giant (giant foxtail [16]; [18]): 0
Plant response rating, Foxtail, Giant (giant foxtail [16]; [19]): 20
Plant response rating, Barnyardgrass (barnyardgrass [17]): 0
Plant response rating, Sedge, Umbrella (sedge, umbrella): 0

N#Cc1cccc(Oc2ncc(Cl)cn2)c1-n1cncn1 [Compound 193]
Plant response rating, Morningglory (morningglory [1]; [20]): 90
Plant response rating, Wheat (wheat [2]; [20]): 20
Plant response rating, Corn (corn [3]; [20]): 60
Plant response rating, Rice (rice): 0
Wheat plant response rating (wheat [4]; 1000 g ai/ha): 20
Foxtail, Giant plant response rating (giant foxtail [5]; 1000 g ai/ha): 100
Plant response rating, Crabgrass, Large (large (Lg) crabgrass [6]; [20]): 80
Corn plant response rating (corn [7]; 1000 g ai/ha): 20
Crabgrass, Large plant response rating (large (Lg) crabgrass [8]; 1000 g ai/ha): 100
Plant response rating, Velvetleaf (velvetleaf [9]; [20]): 90
Plant response rating, Ducksalad (Heteranthera limosa): 0
Pigweed plant response rating (pigweed [10]; 1000 g ai/ha): 100
Barnyardgrass plant response rating (barnyardgrass [11]; 1000 g ai/ha): 60
Velvetleaf plant response rating (velvetleaf [12]; 1000 g ai/ha): 90
Plant response rating, Barnyardgrass (barnyardgrass [13]; [20]): 90
Plant response rating, Pigweed (pigweed [14]; [20]): 100
Morningglory plant response rating (morningglory [15]; 1000 g ai/ha): 100
Plant response rating, Foxtail, Giant (giant foxtail [16]; [20]): 80
Plant response rating, Barnyardgrass (barnyardgrass [17]): 0
Plant response rating, Sedge, Umbrella (sedge, umbrella): 0

Cc1cnc(Oc2cccc(C#N)c2-n2cc(Br)cn2)nc1 [Compound 76]
Plant response rating, Morningglory (morningglory [1]; [18]): 60
Plant response rating, Morningglory (morningglory [1]; [21]): 90
Plant response rating, Wheat (wheat [2]; [18]): 0
Plant response rating, Wheat (wheat [2]; [21]): 10
Plant response rating, Corn (corn [3]; [18]): 10
Plant response rating, Corn (corn [3]; [19]): 80
Plant response rating, Rice (rice): 0
Plant response rating, Wheat (wheat [4]): 0
Wheat plant response rating (wheat [4]; 500 g ai/ha): 30
Plant response rating, Foxtail, Giant (giant foxtail [5]): 80
Foxtail, Giant plant response rating (giant foxtail [5]; 500 g ai/ha): 100
Plant response rating, Crabgrass, Large (large (Lg) crabgrass [6]; [18]): 70
Plant response rating, Crabgrass, Large (large (Lg) crabgrass [6]; [19]): 100
Plant response rating, Corn (corn [7]): 20
Corn plant response rating (corn [7]; 500 g ai/ha): 30
Plant response rating, Crabgrass, Large (large (Lg) crabgrass [8]): 100
Crabgrass, Large plant response rating (large (Lg) crabgrass [8]; 500 g ai/ha): 100
Plant response rating, Velvetleaf (velvetleaf [9]; [18]): 80
Plant response rating, Velvetleaf (velvetleaf [9]; [21]): 100
Plant response rating, Ducksalad (Heteranthera limosa): 70
Plant response rating, Pigweed (pigweed [10]): 100
Pigweed plant response rating (pigweed [10]; 500 g ai/ha): 100
Plant response rating, Barnyardgrass (barnyardgrass [11]): 50
Barnyardgrass plant response rating (barnyardgrass [11]; 500 g ai/ha): 100
Plant response rating, Velvetleaf (velvetleaf [12]): 90
Velvetleaf plant response rating (velvetleaf [12]; 500 g ai/ha): 100
Plant response rating, Barnyardgrass (barnyardgrass [13]; [18]): 60
Plant response rating, Barnyardgrass (barnyardgrass [13]; [19]): 100
Plant response rating, Pigweed (pigweed [14]; [18]): 90
Plant response rating, Pigweed (pigweed [14]; [21]): 100
Plant response rating, Morningglory (morningglory [15]): 0
Morningglory plant response rating (morningglory [15]; 500 g ai/ha): 80
Plant response rating, Foxtail, Giant (giant foxtail [16]; [18]): 60
Plant response rating, Foxtail, Giant (giant foxtail [16]; [21]): 90
Plant response rating, Barnyardgrass (barnyardgrass [17]): 0
Plant response rating, Sedge, Umbrella (sedge, umbrella): 75
